Experimental data taken from ChEMBL document CHEMBL3739403 (Bioorg Med Chem, 2016).
One block for each molecule: values may come before it.

Key:
Prothrombin [1] = molecular target: T1, Prothrombin (Homo sapiens, UniProt P00734); assay: Inhibition of thrombin (unknown origin)
Prothrombin [2] = molecular target: T1, Prothrombin; assay: Inhibition of human thrombin preincubated for 10 mins using Ac-FVR-AMC as substrate by […] assay

Structure (SMILES): CCCCCn1c(CNc2ccc(C(=N)N)cc2F)nc2cc(C(=O)N(CCC(=O)O)c3ccc(F)c(Cl)c3)ccc21
IC50 (Prothrombin [1]): 0.174 µM

Structure (SMILES): CCCCn1c(CNc2ccc(C(=N)N)cc2F)nc2cc(C(=O)N(CCC(=O)O)c3ccc(F)c(Cl)c3)ccc21
IC50 (Prothrombin [1]): 0.0363 µM

Structure (SMILES): CCn1c(CNc2ccc(C(=N)N)cc2)nc2cc(C(=O)N(CCC(=O)O)c3cccc(C(F)(F)F)c3)ccc21
IC50 (Prothrombin [1]): 0.0263 µM

Structure (SMILES): CCn1c(CNc2ccc(C(=N)N)cc2F)nc2cc(C(=O)N(CCC(=O)O)c3cc(C)ccn3)ccc21
IC50 (Prothrombin [1]): 0.0191 µM

Structure (SMILES): CCCCCCOC(=O)NC(=N)c1ccc(NCc2nc3cc(C(=O)N(CCC(=O)OCC)c4ccccn4)ccc3n2C)cc1 [DABIGATRAN ETEXILATE]
IC50 (Prothrombin [2]; read-out: IC50): 0.00261 µM
IC50 (Prothrombin [2]; read-out: pIC50 (converted)): 0.00263 µM

Structure (SMILES): CCCCn1c(CNc2ccc(C(=N)N)cc2)nc2cc(C(=O)N(CCC(=O)O)c3ccc(F)c(Cl)c3)ccc21
IC50 (Prothrombin [1]): 0.0398 µM

Structure (SMILES): N=C(N)c1ccc(NCc2nc3cc(C(=O)N(CCC(=O)O)c4ccc(F)c(Cl)c4)ccc3n2C2CC2)c(F)c1
IC50 (Prothrombin [1]): 0.0269 µM

Structure (SMILES): CCn1c(CNc2ccc(C(=N)N)cc2)nc2cc(C(=O)N(CCC(=O)O)c3ccc(C(F)(F)F)cc3)ccc21
IC50 (Prothrombin [1]): 0.2 µM

Structure (SMILES): Cc1ccnc(N(CCC(=O)O)C(=O)c2ccc3c(c2)nc(CNc2ccc(C(=N)N)cc2F)n3C)c1
IC50 (Prothrombin [1]): 0.024 µM

Structure (SMILES): Cn1c(CNc2ccc(C(=N)N)cc2)nc2cc(C(=O)N(CCC(=O)O)c3ccccc3C(F)(F)F)ccc21
IC50 (Prothrombin [2]; read-out: IC50): 0.00496 µM
IC50 (Prothrombin [2]; read-out: pIC50 (converted)): 0.00501 µM

Structure (SMILES): Cn1c(CNc2ccc(C(=N)N)cc2)nc2cc(C(=O)N(CCC(=O)O)c3ccc(F)c(F)c3)ccc21
IC50 (Prothrombin [2]; read-out: IC50): 0.00395 µM
IC50 (Prothrombin [2]; read-out: pIC50 (converted)): 0.00398 µM

Structure (SMILES): CCCn1c(CNc2ccc(C(=N)N)cc2F)nc2cc(C(=O)N(CCC(=O)O)c3ccc(F)c(Cl)c3)ccc21
IC50 (Prothrombin [1]): 0.0282 µM

Structure (SMILES): CCCCCn1c(CNc2ccc(C(=N)N)cc2)nc2cc(C(=O)N(CCC(=O)O)c3ccc(F)c(Cl)c3)ccc21
IC50 (Prothrombin [1]): 0.117 µM

Structure (SMILES): CCn1c(CNc2ccc(C(=N)N)cc2)nc2cc(C(=O)N(CCC(=O)O)c3ccc(OC(F)(F)F)cc3)ccc21
IC50 (Prothrombin [1]): 0.117 µM

Structure (SMILES): CC(C)n1c(CNc2ccc(C(=N)N)cc2)nc2cc(C(=O)N(CCC(=O)O)c3ccc(F)c(Cl)c3)ccc21
IC50 (Prothrombin [1]): 0.0186 µM

Structure (SMILES): N=C(N)c1ccc(NCc2nc3cc(C(=O)N(CCC(=O)O)c4ccc(F)c(Cl)c4)ccc3n2C2CC2)cc1
IC50 (Prothrombin [1]): 0.0275 µM

Structure (SMILES): CC(C)n1c(CNc2ccc(C(=N)N)cc2F)nc2cc(C(=O)N(CCC(=O)O)c3ccc(F)c(Cl)c3)ccc21
IC50 (Prothrombin [1]): 0.0174 µM

More lines, in order of falling IC50 (Prothrombin [1]), values ahead:

IC50 (Prothrombin [1]): 0.0123 µM
Structure (SMILES): Cn1c(CNc2ccc(C(=N)N)cc2)nc2cc(C(=O)N(CCC(=O)O)c3cccc(C(F)(F)F)c3)ccc21

IC50 (Prothrombin [1]): 0.0115 µM
Structure (SMILES): Cn1c(CNc2ccc(C(=N)N)cc2F)nc2cc(C(=O)N(CCC(=O)O)c3ccc(F)c(Cl)c3)ccc21

IC50 (Prothrombin [1]): 0.011 µM
Structure (SMILES): CCCn1c(CNc2ccc(C(=N)N)cc2)nc2cc(C(=O)N(CCC(=O)O)c3ccc(F)c(Cl)c3)ccc21

IC50 (Prothrombin [1]): 0.0105 µM
Structure (SMILES): Cn1c(CNc2ccc(C(=N)N)cc2)nc2cc(C(=O)N(CCC(=O)O)c3cc(F)cc(F)c3)ccc21

IC50 (Prothrombin [1]): 0.00955 µM
Structure (SMILES): CCn1c(CNc2ccc(C(=N)N)cc2)nc2cc(C(=O)N(CCC(=O)O)c3ccc(F)c(F)c3)ccc21

IC50 (Prothrombin [1]): 0.00891 µM
Structure (SMILES): CCn1c(CNc2ccc(C(=N)N)cc2)nc2cc(C(=O)N(CCC(=O)O)c3ccc(F)c(Cl)c3)ccc21

IC50 (Prothrombin [1]): 0.00832 µM
Structure (SMILES): Cn1c(CNc2ccc(C(=N)N)cc2)nc2cc(C(=O)N(CCC(=O)O)c3ccc(F)c(Cl)c3)ccc21

IC50 (Prothrombin [1]): 0.00794 µM
Structure (SMILES): CCn1c(CNc2ccc(C(=N)N)cc2)nc2cc(C(=O)N(CCC(=O)O)c3cc(F)cc(F)c3)ccc21

IC50 (Prothrombin [1]): 0.00741 µM
Structure (SMILES): CCn1c(CNc2ccc(C(=N)N)cc2)nc2cc(C(=O)N(CCC(=O)O)c3cccc(F)c3)ccc21

IC50 (Prothrombin [1]): 0.00617 µM
Structure (SMILES): CCn1c(CNc2ccc(C(=N)N)cc2)nc2cc(C(=O)N(CCC(=O)O)c3ccccc3C(F)(F)F)ccc21

IC50 (Prothrombin [1]): 0.00537 µM
Structure (SMILES): Cn1c(CNc2ccc(C(=N)N)cc2)nc2cc(C(=O)N(CCC(=O)O)c3cccc(F)c3)ccc21

IC50 (Prothrombin [1]): 0.00427 µM
Structure (SMILES): CCn1c(CNc2ccc(C(=N)N)cc2)nc2cc(C(=O)N(CCC(=O)O)c3ccc(F)cc3)ccc21

IC50 (Prothrombin [1]): 0.00355 µM
Structure (SMILES): CCn1c(CNc2ccc(C(=N)N)cc2)nc2cc(C(=O)N(CCC(=O)O)c3ccccc3F)ccc21

IC50 (Prothrombin [1]): 0.00204 µM
Structure (SMILES): CCn1c(CNc2ccc(C(=N)N)cc2F)nc2cc(C(=O)N(CCC(=O)O)c3ccc(F)c(Cl)c3)ccc21
